The values below come from patent US9688710B2, “Inhibitors of sodium glucose cotransporter 1” (LEXICON PHARMACEUTICALS, INC., priority 2012, dated 2017).

pIC50: −log10 of the molar value.

For experiment [1], the target named is Human sodium/glucose co-transporter type 2 (SGLT2) (Homo sapiens (Human), UniProt P31639). In words: In vitro human SGLT2 inhibition assay (14C-AMG uptake). In kind it is cell-based. The settings on record: HEK293 cells expressing human HA-SGLT2, 14C-AMG uptake. An outline of the steps: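 HEK293 cells stably expressing HA-tagged human SGLT2, seeded overnight, washed into Na+-containing HEPES/Tris uptake buffer with 1 mg/mL BSA, pH 7.3. Compound added, then 14C-AMG (100 nCi); 1-2 h at 37 °C, 5% CO2. Washed cells counted by scintillation for 14C-AMG uptake.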
Sequence of Human sodium/glucose co-transporter type 2 (SGLT2) (P31639 whole entry): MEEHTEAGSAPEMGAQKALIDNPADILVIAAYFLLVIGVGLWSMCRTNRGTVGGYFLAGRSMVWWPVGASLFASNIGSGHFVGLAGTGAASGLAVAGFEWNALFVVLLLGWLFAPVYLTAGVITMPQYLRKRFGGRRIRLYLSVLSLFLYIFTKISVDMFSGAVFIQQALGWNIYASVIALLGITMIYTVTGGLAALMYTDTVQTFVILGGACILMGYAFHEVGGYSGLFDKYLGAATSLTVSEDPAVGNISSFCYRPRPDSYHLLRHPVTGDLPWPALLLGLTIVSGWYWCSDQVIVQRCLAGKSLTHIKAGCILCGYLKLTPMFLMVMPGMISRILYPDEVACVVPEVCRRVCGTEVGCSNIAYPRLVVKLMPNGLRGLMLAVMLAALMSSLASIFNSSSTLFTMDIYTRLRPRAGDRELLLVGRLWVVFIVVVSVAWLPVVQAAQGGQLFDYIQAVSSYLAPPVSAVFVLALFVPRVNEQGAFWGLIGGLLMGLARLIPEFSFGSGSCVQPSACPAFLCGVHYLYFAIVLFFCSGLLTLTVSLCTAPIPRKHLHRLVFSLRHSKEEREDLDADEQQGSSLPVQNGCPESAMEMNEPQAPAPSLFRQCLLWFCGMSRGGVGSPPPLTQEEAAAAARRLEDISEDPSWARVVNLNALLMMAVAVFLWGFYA

Experiment [2] addresses Human sodium/glucose co-transporter type 1 (SGLT1) (Homo sapiens (Human), UniProt P13866). The experiment can be described thus: In vitro human SGLT1 inhibition assay (14C-AMG uptake). Type of experiment: cell-based. More on the design: key to SGLT1 (human SGLT1 IC50): ***: a value less than 0.01 μM; **: a value less than 0.1 μM; *: a value less than 1 μM; —: a value not measured or exceeding μM. The conditions noted are these: HEK293 cells expressing human HA-SGLT1, 14C-AMG uptake. An outline of the steps:
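HEK293 cells stably expressing human HA-tagged SGLT1 (30,000/well, overnight) were washed into Na+-containing uptake buffer (140 mM NaCl, HEPES/Tris, 1 mg/mL BSA, pH 7.3). Cells then received compound plus 100 nCi 14C-AMG for 1–2 h at 37 °C; after washing, AMG uptake was quantified by scintillation counting.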

Sequence of Human sodium/glucose co-transporter type 1 (SGLT1) (P13866 whole entry): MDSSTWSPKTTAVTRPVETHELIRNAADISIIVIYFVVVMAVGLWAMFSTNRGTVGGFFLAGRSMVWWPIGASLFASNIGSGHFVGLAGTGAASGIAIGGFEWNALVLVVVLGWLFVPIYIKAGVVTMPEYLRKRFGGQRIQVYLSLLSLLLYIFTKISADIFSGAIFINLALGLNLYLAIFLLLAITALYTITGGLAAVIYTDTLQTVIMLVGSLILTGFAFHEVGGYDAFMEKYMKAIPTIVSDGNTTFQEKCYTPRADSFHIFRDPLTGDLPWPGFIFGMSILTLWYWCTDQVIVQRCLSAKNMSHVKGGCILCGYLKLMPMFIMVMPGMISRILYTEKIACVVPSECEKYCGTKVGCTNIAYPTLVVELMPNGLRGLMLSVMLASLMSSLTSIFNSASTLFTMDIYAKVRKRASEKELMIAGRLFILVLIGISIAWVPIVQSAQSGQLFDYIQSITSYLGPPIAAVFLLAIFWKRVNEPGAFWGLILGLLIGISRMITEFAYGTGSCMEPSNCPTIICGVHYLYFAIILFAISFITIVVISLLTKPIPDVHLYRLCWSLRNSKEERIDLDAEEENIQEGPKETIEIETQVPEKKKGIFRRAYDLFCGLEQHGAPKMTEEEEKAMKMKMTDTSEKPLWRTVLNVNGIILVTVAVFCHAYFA

On to `CS[C@H]1O[C@@H](c2ccc(C)c(Cc3ccc(OCCCC(=O)NC(C)(C)C(=O)N4CCC(C)CC4)cc3)c2)[C@H](O)[C@@H](O)[C@@H]1O` [N-(2-methyl-1-(4-methylpiperidin-1-yl)-1-oxopropan-2-yl)-4-(4-(2-methyl-5-((2S,3R,4R,5S,6R)-3,4,5-trihydroxy-6-(methylthio)tetrahydro-2H-pyran-2-yl)benzyl)phenoxy)butanamide], for which the negative logarithm of the IC50 (pIC50) in experiment [1] and in experiment [2] was > 8.00 throughout.

For the compound `CS[C@H]1O[C@@H](c2ccc(C)c(Cc3ccc(CCCC(=O)NC(C)(C)C(=O)N4CCC(C)CC4)cc3)c2)[C@H](O)[C@@H](O)[C@@H]1O` [N-(2-methyl-1-(4-methylpiperidin-1-yl)-1-oxopropan-2-yl)-4-(4-(2-methyl-5-((2S,3R,4R,5S,6R)-3,4,5-trihydroxy-6-(methylthio)tetrahydro-2H-pyran-2-yl)benzyl)phenyl)butanamide], the pIC50 in experiment [1] and in experiment [2] was > 8.00 throughout.

Consider `CS[C@H]1O[C@@H](c2ccc(C)c(Cc3ccc(OCCCC(=O)NC(C)(C)C(=O)NC4CCN(C)CC4)cc3)c2)[C@H](O)[C@@H](O)[C@@H]1O` [N-(2-methyl-1-((1-methylpiperidin-4-yl)amino)-1-oxopropan-2-yl)-4-(4-(2-methyl-5-((2S,3R,4R,5S,6R)-3,4,5-trihydroxy-6-(methylthio)tetrahydro-2H-pyran-2-yl)benzyl)phenoxy)butanamide], for which the pIC50 in experiment [1] and in experiment [2] was > 8.00 throughout.

`CS[C@H]1O[C@@H](c2ccc(C)c(Cc3ccc(CCCC(=O)NC(C)(C)C(=O)NC4CCN(C)CC4)cc3)c2)[C@H](O)[C@@H](O)[C@@H]1O` [N-(2-methyl-1-((1-methylpiperidin-4-yl)amino)-1-oxopropan-2-yl)-4-(4-(2-methyl-5-((2S,3R,4R,5S,6R)-3,4,5-trihydroxy-6-(methylthio)tetrahydro-2H-pyran-2-yl)benzyl)phenyl)butanamide]: the pIC50 in experiment [1] and in experiment [2] was > 8.00 each time.

For `CNC(=O)C(C)(C)NC(=O)CCCc1ccc(Cc2cc([C@@H]3O[C@H](SC)[C@@H](O)[C@H](O)[C@H]3O)ccc2C)cc1` [N-(2-methyl-1-(methylamino)-1-oxopropan-2-yl)-4-(4-(2-methyl-5-((2S,3R,4R,5S,6R)-3,4,5-trihydroxy-6-(methylthio)tetrahydro-2H-pyran-2-yl)benzyl)phenyl)butanamide], the pIC50 in experiment [1] and in experiment [2] was > 8.00 throughout.

As to `CS[C@H]1O[C@@H](c2ccc(C)c(Cc3ccc(OCCCC(=O)NC(C)(C)C(=O)N4CCOCC4)cc3)c2)[C@H](O)[C@@H](O)[C@@H]1O` [N-(2-methyl-1-morpholino-1-oxopropan-2-yl)-4-(4-(2-methyl-5-((2S,3R,4R,5S,6R)-3,4,5-trihydroxy-6-(methylthio)tetrahydro-2H-pyran-2-yl)benzyl)phenoxy)butanamide], the negative-log IC50 (pIC50) in experiment [1] and in experiment [2] was > 8.00 throughout.

As for `CS[C@H]1O[C@@H](c2ccc(C)c(Cc3ccc(CCCC(=O)NC(C)(C)C(=O)N4CCOCC4)cc3)c2)[C@H](O)[C@@H](O)[C@@H]1O` [N-(2-methyl-1-morpholino-1-oxopropan-2-yl)-4-(4-(2-methyl-5-((2S,3R,4R,5S,6R)-3,4,5-trihydroxy-6-(methylthio)tetrahydro-2H-pyran-2-yl)benzyl)phenyl)butanamide], the pIC50 in experiment [1] and in experiment [2] was > 8.00 throughout.

In the case of `CS[C@H]1O[C@@H](c2ccc(C)c(Cc3ccc(CCCC(=O)NC(C)(C)C(=O)N4CCNCC4)cc3)c2)[C@H](O)[C@@H](O)[C@@H]1O` [N-(2-methyl-1-oxo-1-(piperazin-1-yl)propan-2-yl)-4-(4-(2-methyl-5-((2S,3R,4R,5S,6R)-3,4,5-trihydroxy-6-(methylthio)tetrahydro-2H-pyran-2-yl)benzyl)phenyl)butanamide], the negative logarithm of the IC50 (pIC50) in experiment [1] and in experiment [2] was > 8.00 in each case.

For the compound `CS[C@H]1O[C@@H](c2ccc(C)c(Cc3ccc(OCCCC(=O)NC(C)(C)C(=O)NC4CCNCC4)cc3)c2)[C@H](O)[C@@H](O)[C@@H]1O` [N-(2-methyl-1-oxo-1-(piperidin-4-ylamino)propan-2-yl)-4-(4-(2-methyl-5-((2S,3R,4R,5S,6R)-3,4,5-trihydroxy-6-(methylthio)tetrahydro-2H-pyran-2-yl)benzyl)phenoxy)butanamide], the negative logarithm of the IC50 (pIC50) in experiment [1] and in experiment [2] was > 8.00 each time.

Consider `CS[C@H]1O[C@@H](c2ccc(C)c(Cc3ccc(CCCC(=O)NC(C)(C)C(=O)NC4CCNCC4)cc3)c2)[C@H](O)[C@@H](O)[C@@H]1O` [N-(2-methyl-1-oxo-1-(piperidin-4-ylamino)propan-2-yl)-4-(4-(2-methyl-5-((2S,3R,4R,5S,6R)-3,4,5-trihydroxy-6-(methylthio)tetrahydro-2H-pyran-2-yl)benzyl)phenyl)butanamide], for which the negative logarithm of the IC50 (pIC50) in experiment [1] and in experiment [2] was > 8.00 throughout.

Regarding `CS[C@H]1O[C@@H](c2ccc(Cl)c(Cc3ccc(OCCCNC(=O)C(C)(C)CO)cc3)c2)[C@H](O)[C@@H](O)[C@@H]1O` [N-(3-(4-(2-chloro-5-((2S,3R,4R,5S,6R)-3,4,5-trihydroxy-6-(methylthio)tetrahydro-2H-pyran-2-yl)benzyl)phenoxy)propyl)-3-hydroxy-2,2-dimethylpropanamide], the pIC50 is > 8.00 in experiment [1] and > 7.00 in experiment [2].

With `CS[C@H]1O[C@@H](c2ccc(C)c(Cc3ccc(CCCC(=O)NCC(C)(C)C(=O)N(C)CCN(C)C)cc3)c2)[C@H](O)[C@@H](O)[C@@H]1O` [N-(3-((2-(dimethylamino)ethyl)(methyl)amino)-2,2-dimethyl-3-oxopropyl)-4-(4-(2-methyl-5-((2S,3R,4R,5S,6R)-3,4,5-trihydroxy-6-(methylthio)tetrahydro-2H-pyran-2-yl)benzyl)phenyl)butanamide], in experiment [1], the negative-log IC50 (pIC50) was > 7.00. In addition, in experiment [2], the “SGLT1 (human SGLT1 IC50)” value is reported as “—”.

For `CS[C@H]1O[C@@H](c2ccc(Cl)c(Cc3ccc(OCCCC(=O)NCC(C)(C)C(N)=O)cc3)c2)[C@H](O)[C@@H](O)[C@@H]1O` [N-(3-amino-2,2-dimethyl-3-oxopropyl)-4-(4-(2-chloro-5-((2S,3R,4R,5S,6R)-3,4,5-trihydroxy-6-(methylthio)tetrahydro-2H-pyran-2-yl)benzyl)phenoxy)butanamide], the negative-log IC50 (pIC50) in experiment [1] was > 8.00; in experiment [2] it was > 7.00.

For `CS[C@H]1O[C@@H](c2ccc(C)c(Cc3ccc(OCCCC(=O)NCC(C)(C)C(N)=O)cc3)c2)[C@H](O)[C@@H](O)[C@@H]1O` [N-(3-amino-2,2-dimethyl-3-oxopropyl)-4-(4-(2-methyl-5-((2S,3R,4R,5S,6R)-3,4,5-trihydroxy-6-(methylthio)tetrahydro-2H-pyran-2-yl)benzyl)phenoxy)butanamide], the pIC50 in experiment [1] was > 8.00; in experiment [2], > 7.00.

Take `CCC(=O)NCCCCc1ccc(Cc2cc([C@@H]3O[C@H](SC)[C@@H](O)[C@H](O)[C@H]3O)ccc2C)cc1` [N-(4-(4-(2-methyl-5-((2S,3R,4R,5S,6R)-3,4,5-trihydroxy-6-(methylthio)tetrahydro-2H-pyran-2-yl)benzyl)phenyl)butyl)propionamide]: the pIC50 in experiment [1] and in experiment [2] was > 8.00 throughout.
